The text below walks through data of the supplement of paper PMC9663587.

Compound in the first experiment: T1, CN(C)C/C=C/C(=O)Nc1ccc(C(=O)Nc2cccc(Nc3ncc(Cl)c(-c4c[nH]c5ccccc45)n3)c2)cc1 [THZ1]
Nature of the experiment: increase in dead-cell fraction, 72 h; higher = more death.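 Also: breast cancer cell lines in 384-well plates, stained with Hoechst plus LIVE/DEAD far red dye and imaged, cells above an LDR intensity threshold counted dead, Hoechst-negative corpses included.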 The conditions noted are these: 1 µM.
Turning to BT20, the “increase in dead-cell fraction” value stood at 0.212.
Same read-out and setting: next, MCF10A (GM): 0.61.
Same read-out and setting: next, PDX1206: 0.513.

Compound in another experiment: CN1CC[C@H](c2c(O)cc(O)c3c(=O)cc(-c4ccccc4Cl)oc23)[C@H](O)C1 [Flavopiridol]
The experiment is described as above. Particulars: 0.0001 µM.
As to 184A1, the “increase in dead-cell fraction” value is -0.0061.
Same read-out and setting: next, AU565: -0.0146; BT20: 0.0067.
For the cell line MCF10A (GM), the “increase in dead-cell fraction” value is -0.0007.
Same read-out and setting: with PDX1206 the figure was 0.009.

The same experiment, now with this note: 0.0003162 µM.
With 184A1, the “increase in dead-cell fraction” value turned out to be 0.0046.
Still for that read-out and setting: next, AU565: -0.004.
Consider BT20, for which the “increase in dead-cell fraction” value was found to be 0.0031.
Regarding MCF10A (GM), the “increase in dead-cell fraction” value is -0.0019.
Same read-out and setting: next, PDX1206: 0.0115.

Still in this experiment, the particulars now being: 0.001 µM.
For the cell line 184A1, the “increase in dead-cell fraction” value was -0.0038.
Same read-out and setting: with AU565 the figure was 0.0124; with BT20, -0.001.
Same read-out and setting: with MCF10A (GM) the figure was -0.0004; with PDX1206, 0.0015.

The experiment is the same for the next values; noted with them: 0.003162 µM.
Take 184A1: the “increase in dead-cell fraction” value was -0.0001.
Consider AU565, for which the “increase in dead-cell fraction” value was determined as 0.0024.
Same read-out and setting: with BT20 the figure was -0.0003; with MCF10A (GM), -0.0003; with PDX1206, 0.0091.

The same experiment, now with this note: 0.01 µM.
For 184A1, the “increase in dead-cell fraction” value was determined as 0.0054.
Still for that read-out and setting: next, AU565: -0.0083; BT20: 0.0003.
On the same count and under the same terms, next, MCF10A (GM): 0.0027.
For the cell line PDX1206, the “increase in dead-cell fraction” value was -0.0105.

The experiment is the same for the next values; noted with them: 0.03162 µM.
As for 184A1, the “increase in dead-cell fraction” value is 0.0223.
AU565: the “increase in dead-cell fraction” value was 0.0121.
Still for that read-out and setting: next, BT20: 0.0115; MCF10A (GM): 0.0152.
Still for that read-out and setting: next, PDX1206: 0.0053.

The same experiment, now with this note: 0.1 µM.
On to 184A1, for which the “increase in dead-cell fraction” value came to 0.0902.
Still for that read-out and setting: with AU565 the figure was 0.0266; with BT20, 0.0027; with MCF10A (GM), 0.0701.
Still for that read-out and setting: with PDX1206 the figure was 0.0408.

Staying with this experiment, now noted: 0.3162 µM.
On to 184A1, for which the “increase in dead-cell fraction” value turned out to be 0.231.
For the cell line AU565, the “increase in dead-cell fraction” value came out at 0.262.
BT20: the “increase in dead-cell fraction” value stood at 0.0458.
For MCF10A (GM), the “increase in dead-cell fraction” value came to 0.491.
For PDX1206, the “increase in dead-cell fraction” value amounted to 0.405.

The experiment is the same for the next values; noted with them: 1 µM.
As to 184A1, the “increase in dead-cell fraction” value was 0.0866.
For AU565, the “increase in dead-cell fraction” value stood at 0.602.
Take BT20: the “increase in dead-cell fraction” value is 0.637.
MCF10A (GM): the “increase in dead-cell fraction” value was 0.66.
Still for that read-out and setting: next, PDX1206: 0.587.

Compound in a further experiment: CCOc1cc2ncc(C#N)c(Nc3ccc(OCc4ccccn4)c(Cl)c3)c2cc1NC(=O)/C=C/CN(C)C [Neratinib/HKI272]
Nature of the experiment: GR value, 72 h; higher = faster growth (1 = untreated, <0 = killing).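 Also: breast cancer and non-malignant breast epithelial lines, nine half-log doses, viable cells counted by Hoechst and LIVE/DEAD dye imaging versus time-zero plates and DMSO controls.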 Particulars: 0.0003162 µM.
Consider 184A1, for which the GR value came to 0.998 GR.
Still for that read-out and setting: next, AU565: 0.834 GR; BT20: 1.04 GR.
Turning to HCC1428, the GR value is 1.08 GR.
In the case of HCC1500, the GR value was determined as 1.03 GR.
On the same count and under the same terms, next, MDAMB157: 1.03 GR.

Still in this experiment, the particulars now being: 0.001 µM.
As to 184A1, the GR value was determined as 1 GR.
On the same count and under the same terms, with AU565 the figure was 0.534 GR; with BT20, 1.03 GR; with HCC1428, 1.03 GR.
On the same count and under the same terms, with HCC1500 the figure was 1.13 GR; with MDAMB157, 0.981 GR.

The experiment is the same for the next values; noted with them: 0.003162 µM.
Turning to 184A1, the GR value stood at 1.02 GR.
On the same count and under the same terms, next, AU565: 0.172 GR.
With BT20, the GR value came to 1.07 GR.
Still for that read-out and setting: next, HCC1428: 1.05 GR.
HCC1500: the GR value came to 1.01 GR.
As for MDAMB157, the GR value worked out at 1.04 GR.

Staying with this experiment, now noted: 0.01 µM.
Turning to 184A1, the GR value was 0.853 GR.
The same measure, in the same setting: next, AU565: -0.145 GR; BT20: 0.976 GR; HCC1428: 0.992 GR.
Still for that read-out and setting: next, HCC1500: 1.02 GR; MDAMB157: 1 GR.

The experiment is the same for the next values; noted with them: 0.03162 µM.
Turning to 184A1, the GR value came out at 0.468 GR.
The same measure, in the same setting: next, AU565: -0.318 GR; BT20: 0.918 GR.
The same measure, in the same setting: with HCC1428 the figure was 1.1 GR; with HCC1500, 0.915 GR; with MDAMB157, 0.921 GR.

Still in this experiment, the particulars now being: 0.1 µM.
On to 184A1, for which the GR value worked out at 0.287 GR.
As for AU565, the GR value was -0.388 GR.
Still for that read-out and setting: next, BT20: 0.86 GR; HCC1428: 0.964 GR; HCC1500: 0.889 GR.
Regarding MDAMB157, the GR value was found to be 0.842 GR.

Staying with this experiment, now noted: 0.3162 µM.
Consider 184A1, for which the GR value worked out at 0.219 GR.
Still for that read-out and setting: next, AU565: -0.506 GR.
Same read-out and setting: next, BT20: 0.693 GR; HCC1428: 0.922 GR; HCC1500: 0.793 GR.
On the same count and under the same terms, next, MDAMB157: 0.708 GR.

The experiment is the same for the next values; noted with them: 1 µM.
In the case of 184A1, the GR value came out at 0.198 GR.
As to AU565, the GR value was -0.585 GR.
Regarding BT20, the GR value was determined as 0.607 GR.
Still for that read-out and setting: next, HCC1428: 0.656 GR; HCC1500: 0.416 GR.
The same measure, in the same setting: with MDAMB157 the figure was 0.445 GR.

The experiment is the same for the next values; noted with them: 3.162 µM.
Take 184A1: the GR value is 0.166 GR.
On the same count and under the same terms, with AU565 the figure was -0.614 GR; with BT20, 0.295 GR.
For the cell line HCC1428, the GR value was -0.0337 GR.
Still for that read-out and setting: next, HCC1500: -0.245 GR; MDAMB157: 0.151 GR.

Compound in the next experiment: T1, THZ1
The experiment is described as above. Particulars: 0.0001 µM.
On to 184A1, for which the GR value worked out at 1.02 GR.
On the same count and under the same terms, with AU565 the figure was 0.903 GR; with BT20, 0.946 GR; with MCF10A (GM), 0.997 GR.
On the same count and under the same terms, with PDX1206 the figure was 1.05 GR.

The experiment is the same for the next values; noted with them: 0.0003162 µM.
As for 184A1, the GR value stood at 1 GR.
The same measure, in the same setting: next, AU565: 1.02 GR; BT20: 1.04 GR; MCF10A (GM): 0.998 GR.
On the same count and under the same terms, with PDX1206 the figure was 1.03 GR.

Staying with this experiment, now noted: 0.001 µM.
As to 184A1, the GR value amounted to 1.01 GR.
With AU565, the GR value amounted to 0.972 GR.
In the case of BT20, the GR value amounted to 1 GR.
Still for that read-out and setting: next, MCF10A (GM): 0.986 GR; PDX1206: 0.987 GR.

The same experiment, now with this note: 0.003162 µM.
As to 184A1, the GR value turned out to be 0.822 GR.
On the same count and under the same terms, with AU565 the figure was 0.84 GR.
On the same count and under the same terms, with BT20 the figure was 1.02 GR; with MCF10A (GM), 0.993 GR.
On to PDX1206, for which the GR value was determined as 0.977 GR.

The same experiment, now with this note: 0.01 µM.
With 184A1, the GR value is 0.39 GR.
With AU565, the GR value came to 0.797 GR.
Same read-out and setting: next, BT20: 1.03 GR; MCF10A (GM): 0.898 GR; PDX1206: 0.933 GR.

Staying with this experiment, now noted: 0.03162 µM.
With 184A1, the GR value is -0.094 GR.
The same measure, in the same setting: with AU565 the figure was 0.225 GR; with BT20, 1.01 GR.
Still for that read-out and setting: with MCF10A (GM) the figure was 0.539 GR.
Take PDX1206: the GR value amounted to 0.351 GR.

The experiment is the same for the next values; noted with them: 0.1 µM.
In the case of 184A1, the GR value is -0.2 GR.
Same read-out and setting: with AU565 the figure was -0.325 GR; with BT20, 1.01 GR.
Regarding MCF10A (GM), the GR value came to 0.23 GR.
Same read-out and setting: next, PDX1206: -0.278 GR.

Staying with this experiment, now noted: 0.3162 µM.
For the cell line 184A1, the GR value is -0.209 GR.
The same measure, in the same setting: next, AU565: -0.547 GR; BT20: 0.807 GR; MCF10A (GM): 0.0499 GR.
Same read-out and setting: with PDX1206 the figure was -0.408 GR.

Staying with this experiment, now noted: 1 µM.
For AU565, the GR value was -0.653 GR.
Still for that read-out and setting: with BT20 the figure was -0.409 GR.
On the same count and under the same terms, next, MCF10A (GM): -0.285 GR.
On the same count and under the same terms, next, PDX1206: -0.536 GR.
